Experimental data taken from ChEMBL document CHEMBL1139666, “Discovery and synthesis of a novel series of quinoline-based thrombin receptor (PAR-1) antagonists” (Bioorg Med Chem Lett, 2006).
The source made the active and inactive calls. No cut-off for these calls is given here.

Biological target: T1, Proteinase-activated receptor 1 (Homo sapiens, UniProt P25116)
T1 sequence (P25116 whole entry): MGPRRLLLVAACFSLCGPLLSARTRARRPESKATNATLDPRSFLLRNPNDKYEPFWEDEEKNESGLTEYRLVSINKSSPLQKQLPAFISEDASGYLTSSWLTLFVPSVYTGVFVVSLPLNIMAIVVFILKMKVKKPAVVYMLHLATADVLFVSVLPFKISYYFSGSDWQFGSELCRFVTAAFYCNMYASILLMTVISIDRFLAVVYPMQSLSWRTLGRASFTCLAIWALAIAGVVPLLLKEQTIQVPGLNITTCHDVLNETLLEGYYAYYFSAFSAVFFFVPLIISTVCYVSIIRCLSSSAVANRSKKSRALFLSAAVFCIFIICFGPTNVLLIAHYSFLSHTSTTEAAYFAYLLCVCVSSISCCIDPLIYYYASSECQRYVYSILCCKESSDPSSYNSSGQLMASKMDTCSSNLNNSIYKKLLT
Experiment: Displacement of [3H]haTRAP from PAR1 in human platelet membrane
Assay type: cell membranes
Conditions: not given

Point of comparison: `COc1ccc2nc(/C=C/[C@H]3[C@@H]4CCCC[C@H]4C[C@H]4C(=O)O[C@H](C)[C@@H]34)ccc2c1Cl` (racemic), IC50 800 nM. Against it:
- C[C@H]1OC(=O)[C@@H]2C[C@@H]3CCCC[C@H]3[C@H](/C=C/c3ccc4cc(Cl)ccc4n3)[C@H]12 (racemic) — 5.2-fold lower, 155 nM
- CC(=O)Nc1ccc2nc(/C=C/[C@H]3[C@@H]4CCCC[C@H]4C[C@H]4C(=O)O[C@H](C)[C@@H]34)ccc2c1 — 8-fold lower, 100 nM
- C[C@H]1OC(=O)[C@@H]2C[C@@H]3CCCC[C@H]3[C@H](/C=C/c3ccc4cc(OCC(=O)NC5CC5)ccc4n3)[C@H]12 — 2.8-fold lower, 290 nM
- C[C@H]1OC(=O)[C@@H]2C[C@@H]3CCCC[C@H]3[C@H](/C=C/c3ccc4cc(N)ccc4n3)[C@H]12 — 27-fold lower, 30 nM
- C[C@H]1OC(=O)[C@@H]2C[C@@H]3CCCC[C@H]3[C@H](/C=C/c3ccc4cc(-c5cccs5)ccc4n3)[C@H]12 — 2.7-fold lower, 300 nM
- C[C@H]1OC(=O)[C@@H]2C[C@@H]3CCCC[C@H]3[C@H](/C=C/c3ccc4cc(OCC(N)=O)ccc4n3)[C@H]12 — within 1.5-fold, 1000 nM
- C[C@H]1OC(=O)[C@@H]2C[C@@H]3CCCC[C@H]3[C@H](/C=C/c3ccc4cc(OC(C)(C)C(=O)Nc5ccccc5)ccc4n3)[C@H]12 — 1.6-fold lower, 500 nM
- COc1cccc2ccc(/C=C/[C@H]3[C@@H]4CCCC[C@H]4C[C@H]4C(=O)O[C@H](C)[C@@H]34)nc12 (racemic) — within 1.5-fold, 700 nM
- C[C@H]1OC(=O)[C@@H]2C[C@@H]3CCCC[C@H]3[C@H](/C=C/c3ccc4cc(NC(=O)C(C)(C)C)ccc4n3)[C@H]12 — 2.7-fold higher, 2150 nM
- C[C@H]1OC(=O)[C@@H]2C[C@@H]3CCCC[C@H]3[C@H](/C=C/c3ccc4cc(F)ccc4n3)[C@H]12 (racemic) — within 1.5-fold, 730 nM
- C[C@H]1OC(=O)[C@@H]2C[C@@H]3CCCC[C@H]3[C@H](/C=C/c3ccc4cc(-c5ccsc5)ccc4n3)[C@H]12 — 16-fold lower, 50 nM
- C[C@H]1OC(=O)[C@@H]2C[C@@H]3CCCC[C@H]3[C@H](/C=C/c3ccc4cc(OCC(=O)Nc5ccccc5)ccc4n3)[C@H]12 — 32-fold lower, 25 nM
- COc1ccc2nc(/C=C/[C@H]3[C@@H]4CCCC[C@H]4C[C@H]4C(=O)O[C@H](C)[C@@H]34)ccc2c1OC — 16-fold lower, 50 nM
- C[C@H]1OC(=O)[C@@H]2C[C@@H]3CCCC[C@H]3[C@H](/C=C/c3ccc4cc(OCC(=O)N5CCOCC5)ccc4n3)[C@H]12 — 1.6-fold lower, 500 nM
- C[C@H]1OC(=O)[C@@H]2C[C@@H]3CCCC[C@H]3[C@H](/C=C/c3ccc4cc(-c5cccc(C(F)(F)F)c5)ccc4n3)[C@H]12 — 2.7-fold lower, 300 nM
- CCC(=O)Nc1ccc2nc(/C=C/[C@H]3[C@@H]4CCCC[C@H]4C[C@H]4C(=O)O[C@H](C)[C@@H]34)ccc2c1 — 12-fold lower, 68 nM
- C[C@H]1OC(=O)[C@@H]2C[C@@H]3CCCC[C@H]3[C@H](/C=C/c3ccc4cc(OC(C)(C)C(N)=O)ccc4n3)[C@H]12 — the same, 800 nM
- C[C@H]1OC(=O)[C@@H]2C[C@@H]3CCCC[C@H]3[C@H](/C=C/c3ccc4cc(OCC(=O)O)ccc4n3)[C@H]12 — 28-fold lower, 29 nM
- Cc1cccc2ccc(/C=C/[C@H]3[C@@H]4CCCC[C@H]4C[C@H]4C(=O)O[C@H](C)[C@@H]34)nc12 (racemic) — 2.1-fold lower, 390 nM
- C[C@H]1OC(=O)[C@@H]2C[C@@H]3CCCC[C@H]3[C@H](/C=C/c3ccc4cc(NC(=O)c5ccccc5)ccc4n3)[C@H]12 — 3.7-fold lower, 219 nM
- C[C@H]1OC(=O)[C@@H]2C[C@@H]3CCCC[C@H]3[C@H](/C=C/c3ccc4cc(O)ccc4n3)[C@H]12 — 130-fold lower, 6.3 nM
- CCOc1ccc2nc(/C=C/[C@H]3[C@@H]4CCCC[C@H]4C[C@H]4C(=O)O[C@H](C)[C@@H]34)ccc2c1 (racemic) — 6.4-fold lower, 125 nM
- C[C@H]1OC(=O)[C@@H]2C[C@@H]3CCCC[C@H]3[C@H](/C=C/c3ccc4cc(OCCNC(=O)OC(C)(C)C)ccc4n3)[C@H]12 (racemic) — 2.9-fold lower, 275 nM
- C[C@H]1OC(=O)[C@@H]2C[C@@H]3CCCC[C@H]3[C@H](/C=C/c3ccc4cc(OCc5ccccc5)ccc4n3)[C@H]12 — 1.6-fold higher, 1250 nM
- Cc1ccc2ccc(/C=C/[C@H]3[C@@H]4CCCC[C@H]4C[C@H]4C(=O)O[C@H](C)[C@@H]34)nc2c1 (racemic) — 5.3-fold lower, 150 nM
- CCCC(=O)Nc1ccc2nc(/C=C/[C@H]3[C@@H]4CCCC[C@H]4C[C@H]4C(=O)O[C@H](C)[C@@H]34)ccc2c1 — 29-fold lower, 28 nM

Biological target: T1, Proteinase-activated receptor 1
Experiment: Displacement of [3H]haTRAP from PAR1 in human platelet membrane at […]
Assay type: cell membranes
Conditions: not given

For `C[C@H]1OC(=O)[C@@H]2C[C@@H]3CCCC[C@H]3[C@H](/C=C/c3ccc4cc(OC(F)(F)F)ccc4n3)[C@H]12`, the IC50 was “Not Active”.
In the case of `COc1cc(/C=C/[C@H]2[C@@H]3CCCC[C@H]3C[C@H]3C(=O)O[C@H](C)[C@@H]23)nc2ccccc12` (racemic), the IC50 is reported as “Not Active”.
In the case of `C[C@H]1OC(=O)[C@@H]2C[C@@H]3CCCC[C@H]3[C@H](/C=C/c3cc(OCc4ccccc4)c4ccccc4n3)[C@H]12` (racemic), the IC50 is reported as “Not Active”.
For `C[C@H]1OC(=O)[C@@H]2C[C@@H]3CCCC[C@H]3[C@H](/C=C/c3ccc4cc(OCCN)ccc4n3)[C@H]12` (racemic), the IC50 was “Not Active”.

System: Cynomolgus monkey
Experiment: Inhibition of platelet aggregation in cynomolgus monkey 2 hrs post dose iv
Assay type: functional, organism-based
Conditions: Macaca fascicularis

In the case of `C[C@H]1OC(=O)[C@@H]2C[C@@H]3CCCC[C@H]3[C@H](/C=C/c3ccc4cc(OCC(=O)O)ccc4n3)[C@H]12`, the inhibition is reported as “Active”.

System: Cynomolgus monkey
Experiment: Inhibition of platelet aggregation in orally dosed cynomolgus monkey
Assay type: functional, organism-based
Conditions: Macaca fascicularis

In the case of `C[C@H]1OC(=O)[C@@H]2C[C@@H]3CCCC[C@H]3[C@H](/C=C/c3ccc4cc(OCC(=O)O)ccc4n3)[C@H]12`, the inhibition is reported as “inactive”.

System: not listed separately
Experiment: AUC(0-4h) in cynomolgus monkey at 10 mg/kg
Assay type: ADME, organism-based, Macaca fascicularis
Parameters: time < 5 hr, dose 10 mg/kg
Conditions: plasma

Point of comparison: `C[C@H]1OC(=O)[C@@H]2C[C@@H]3CCCC[C@H]3[C@H](/C=C/c3ccc4cc(OCC(=O)O)ccc4n3)[C@H]12`, AUC(0-t) at 5 h 17 ng·h/mL. Against it:
- C[C@H]1OC(=O)[C@@H]2C[C@@H]3CCCC[C@H]3[C@H](/C=C/c3ccc4cc(O)ccc4n3)[C@H]12 — 49-fold higher, 826 ng·h/mL
